The text below walks through data of US8563559B2 (Rigel Pharmaceuticals, Inc., priority 2006, dated 2013).

For one assay, the target named is T1, Axl (Homo sapiens, UniProt P30530).
T1 construct: endogenous in cells; host or cells: HeLa
T1 sequence (P30530 26-894): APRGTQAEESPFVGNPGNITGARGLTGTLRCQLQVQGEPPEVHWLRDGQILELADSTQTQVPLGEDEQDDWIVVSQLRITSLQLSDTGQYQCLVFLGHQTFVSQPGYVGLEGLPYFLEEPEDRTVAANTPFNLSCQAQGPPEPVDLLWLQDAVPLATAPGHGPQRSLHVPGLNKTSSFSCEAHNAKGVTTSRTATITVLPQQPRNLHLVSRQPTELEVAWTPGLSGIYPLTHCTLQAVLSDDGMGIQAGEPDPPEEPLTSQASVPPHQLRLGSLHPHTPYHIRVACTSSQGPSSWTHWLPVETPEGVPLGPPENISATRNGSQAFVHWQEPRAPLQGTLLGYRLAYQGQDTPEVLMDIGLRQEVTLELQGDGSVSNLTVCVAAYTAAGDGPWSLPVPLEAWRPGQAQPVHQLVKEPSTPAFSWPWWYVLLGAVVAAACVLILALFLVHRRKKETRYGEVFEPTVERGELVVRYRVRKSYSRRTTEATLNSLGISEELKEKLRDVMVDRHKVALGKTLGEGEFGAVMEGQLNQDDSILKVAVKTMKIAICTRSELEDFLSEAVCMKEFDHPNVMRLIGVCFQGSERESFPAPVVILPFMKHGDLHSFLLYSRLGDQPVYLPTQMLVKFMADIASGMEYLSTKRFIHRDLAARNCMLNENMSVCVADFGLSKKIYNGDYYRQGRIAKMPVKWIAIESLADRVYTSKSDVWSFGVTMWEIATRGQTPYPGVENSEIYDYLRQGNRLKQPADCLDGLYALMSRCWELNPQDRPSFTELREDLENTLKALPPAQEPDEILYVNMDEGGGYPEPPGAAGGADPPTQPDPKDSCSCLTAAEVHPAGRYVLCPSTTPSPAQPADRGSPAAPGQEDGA
Nature of the assay: Phospho-AKT in-cell Western assay (inhibition of Axl activity). To be noted: Table 1, formula (Ia); Hela cells, Axl antibody cross-linking stimulation, phospho-Akt chemiluminescence normalized to relative cell number. Format: cell-based. On the procedure:
The compounds of the invention were tested in the following assay for their ability to inhibit Axl activity.
Phospho-AKT in-Cell Western Assay
• Cell culture plate: 96 well assay plate (Corning 3610), white, clear bottom, tissue-culture treated. • Cells: Hela cells. • Starvation medium: For Axl stimulation: 0.5% FCS (fetal calf serum) in DMEM, plus Axl/Fc (extracellular domain of AXL fused to immunoglobulin Fc region) (R&D, 154-AL) 500 ng/mL. • For EGF (epidermal growth factor) stimulation: 0.5% FCS in DMEM (Dulbecco's modified Eagles medium). • Poly-L-Lysine 0.01% solution (the working solution): 10 μg/ml, dilute In PBS (phosphate buffered saline). • Axl antibody cross-linking: • 1st: Mouse anti-Axl (R&D, MAB154). • 2nd: Biotin-SP-conjugated AffiniPure goat anti-mouse IgG (H+L) (Jackson ImmunoResearch #115-065-003). • Fixing buffer: 4% formaldehyde in PBS. • Wash buffer: 0.1% TritonX-100 in PBS. • Quenching buffer: 3% H2O2, 0.1% Azide in wash buffer, Azide and hydrogen peroxide 1(H2O2) are added fresh. • Blocking buffer: 5% BSA in TBST (tris buffered saline plus 0.1% Tween 20). • Primary antibody: Rabbit anti-human Phospho-Akt antibody (Cell Signaling 9271): 1×250 diluted in blocking buffer. • Secondary antibody: HRP (horse radish peroxidase)-conjugated Goat anti-Rabbit secondary, stock solution: Jackson ImmunoResearch (Goat anti-Rabbit HRP, #111-035-144) 1:1 diluted in glycerol, store at −20° C. The working solution: 1×2000 dilution of stock in blocking buffer. • Chemiluminescent working solution (Pierce, 37030): SuperSignal ELISA (enzyme linked immunosorbant assay) Pico Chemiluminescent substrate. • Crystal Violet solution: Stock: 2.5% Crystal violet in methanol, filtered and kept at ambient temperature. The working solution: dilute the stock 1:20 with PBS immediately before use. • 10% SDS: working solution: 5% SDS (sodium dodecylsulfate), diluted in PBS Methods: Day 1:
A 96 well TC (tissue culture treated) plate was coated with 10 μg/mL poly-L-Lysine at 37° C. for 30 min, washed twice with PBS, and air-dried for 5 minutes before cells were added. Hela cells were seeded at 10,000 cells/well and the cells were starved in 100 μL starvation medium containing Axl/Fc for 24 hrs.
The cells were pre-treated with test compounds by adding 100 μL of 2× test compound to the starvation medium on the cells. The cells were incubated at 37° C. for 1 hr before stimulation.
The cells were stimulated by Axl-antibody cross-linking as follows: A 5×1st/2nd Axl antibody mixture was made (37.5 μg/mL 1st/100 μg/mL 2nd) in starvation medium and nutated at 4° C. with thorough mixing for 1-2 hours for clustering. The resulting mix was warmed to 37° C. 50 μL of 5×Axl 1st/2nd of antibody cluster was added to the cells and the cells were incubated at 37° C. for 5 min.
After 5 minutes stimulation, the plate was flicked to remove medium and the plate was tapped onto paper towels. Formaldehyde (4.0% in PBS, 100 μL) was added to fix the cells and the cells were incubated at ambient temperature for 20 min without shaking.
The cells were washed with a plate washer buffer to remove the formaldehyde solution. The plate was flicked to removed excess wash buffer and tapped onto paper towels. Quenching buffer (100 μL) was added to each well and the cells were incubated at ambient temperature for 20 minutes without shaking.
The cells were washed with a plate washer buffer to remove the quenching buffer. Blocking buffer (100 μL) was added and the cells were incubated at ambient temperature for at least an hour with gentle shaking.
The cells were washed with a plate washer buffer and diluted primary antibody (50 μL) was added to each well (blocking buffer was added to the negative control wells instead). The plates were incubated overnight at 4° C. with gentle shaking.
The wash buffer was removed, diluted secondary antibody (100 μL) was added, and the cells were incubated at ambient temperature for 1 hour with gentle shaking. […]
By IC50 is commonly meant the midpoint of a concentration-inhibition curve. The low end stands for greater potency, the high end for weaker potency. The compound `CNC(=O)[C@H]1C[C@H]2C[C@H](C2(C)C)[C@@]1(C)Nc1nc(Nc2ccc(N3CCOCC3)cc2)ncc1Cl` [Compound 2, (1R,2R,3S,5R)-2-(5-chloro-2-(4-morpholinophenylamino)pyrimidin-4-ylamino)-N,2,6,6-tetramethylbicyclo[3.1.1]heptane-3-carboxamide] came in with an IC50 of 1000 to 10000 nM.
Same read-out and setting: the value for `CNC(=O)[C@H]1C[C@H]2C[C@H](C2(C)C)[C@@]1(C)Nc1nc(Nc2ccc(N3CCN(C)CC3)c(Cl)c2)ncc1Cl` [Compound 5, (1R,2R,3S,5R)-2-(5-chloro-2-(3-chloro-4-(4-methylpiperazin-1-yl)phenylamino)pyrimidin-4-ylamino)-N,2,6,6-tetramethylbicyclo[3.1.1]heptane-3-carboxamide] was less than 1000 nM.
For `CNC(=O)[C@H]1C[C@H]2C[C@H](C2(C)C)[C@@]1(C)Nc1nc(Nc2ccc(OCCN3CCCC3)cc2)ncc1F` [Compound 40, (1R,2R,3S,5R)-2-(5-fluoro-2-(4-(2-(pyrrolidin-1-yl)ethoxy)phenylamino)pyrimidin-4-ylamino)-N,2,6,6-tetramethylbicyclo[3.1.1]heptane-3-carboxamide], the IC50 was 1000 to 10000 nM.
As to `CNC(=O)[C@H]1C[C@H]2C[C@H](C2(C)C)[C@@]1(C)Nc1nc(Nc2ccc(C(=O)N3CCN(C4CCCCC4)CC3)cc2)ncc1Cl` [Compound 10, (1R,2R,3S,5R)-2-(5-chloro-2-(4-(4-cyclohexylpiperazine-1-carbonyl)phenylamino)pyrimidin-4-ylamino)-N,2,6,6-tetramethylbicyclo[3.1.1]heptane-3-carboxamide], the IC50 is less than 1000 nM.
`CN1CCN(c2ccc(Nc3nccc(N[C@@]4(CCO)[C@@H](C(N)=O)C[C@H]5C[C@@H]4C5(C)C)n3)cc2F)CC1` [Compound 19, (1R,2R,3S,5R)-2-(2-(3-fluoro-4-(4-methylpiperazin-1-yl)phenylamino)pyrimidin-4-ylamino)-2-(2-hydroxyethyl)-6,6-dimethylbicyclo[3.1.1]heptane-3-carboxamide] displayed an IC50 of more than 20000 nM.
Still for that read-out and setting: in the case of `CNC(=O)[C@H]1C[C@H]2C[C@H](C2(C)C)[C@@]1(C)Nc1nc(Nc2ccc(N3CCN(S(C)(=O)=O)CC3)c(Cl)c2)ncc1F` [Compound 36, (1R,2R,3S,5R)-2-(5-fluoro-2-(3-chloro-4-(4-methylsulfonylpiperazin-1-yl)phenylamino)pyrimidin-4-ylamino)-N,2,6,6-tetramethylbicyclo[3.1.1]heptane-3-carboxamide] it was 1000 to 10000 nM; in that of `CC1(C)[C@H]2C[C@H](C(=O)NC3CC3)[C@](C)(Nc3nc(Nc4ccc(OCCN5CCCC5)cc4)ncc3Cl)[C@@H]1C2` [Compound 61, (1R,2R,3S,5R)-2-(5-chloro-2-(4-(2-(pyrrolidin-1-yl)ethoxy)phenylamino)pyrimidin-4-ylamino)-N-cyclopropyl-2,6,6-trimethylbicyclo[3.1.1]heptane-3-carboxamide], less than 1000 nM.
As to `CCN(CC)C1CCN(c2ccc(Nc3ncc(Cl)c(N[C@@]4(C)[C@@H](C(=O)NC)C[C@H]5C[C@@H]4C5(C)C)n3)cc2F)CC1` [Compound 32, (1R,2R,3S,5R)-2-(5-chloro-2-(3-fluoro-4-(4-(diethylamino)piperidin-1-yl)phenylamino)pyrimidin-4-ylamino)-N,2,6,6-tetramethylbicyclo[3.1.1]heptane-3-carboxamide], the IC50 was less than 1000 nM.
The compound `CCN(CC)C1CCN(c2ccc(Nc3ncc(Cl)c(N[C@@]4(C)[C@@H](C(=O)NC5CC5)C[C@H]5C[C@@H]4C5(C)C)n3)cc2F)CC1` [Compound 62, (1R,2R,3S,5R)-2-(5-chloro-2-(3-fluoro-4-(4-(diethylamino)piperidin-1-yl)phenylamino)pyrimidin-4-ylamino)-N-cyclopropyl-2,6,6-trimethylbicyclo[3.1.1]heptane-3-carboxamide] came in with an IC50 of less than 1000 nM.
`CNC(=O)[C@H]1C[C@H]2C[C@H](C2(C)C)[C@@]1(C)Nc1nc(Nc2ccc(N3CCC(N4CCN(C)CC4)CC3)c(F)c2)ncc1Cl` [Compound 31, (1R,2R,3S,5R)-2-(5-chloro-2-(3-fluoro-4-(4-(4-methylpiperazin-1-yl)piperidin-1-yl)phenylamino)pyrimidin-4-ylamino)-N,2,6,6-tetramethylbicyclo[3.1.1]heptane-3-carboxamide] came in with an IC50 of less than 1000 nM.

The assay is the same for the next values; noted with them: Table 3, formula (Ic); Hela cells, Axl antibody cross-linking stimulation, phospho-Akt chemiluminescence normalized to relative cell number.
`CNC(=O)[C@H]1C[C@H]2C[C@H](C2(C)C)[C@@]1(C)Nc1nc(Nc2ccc3c(c2)OCC(=O)N3)ncc1Cl` [Compound 28, (1R,2R,3S,5R)-2-(5-chloro-2-(3-oxo-3,4-dihydro-2H-benzo[b][1,4]oxazin-7-ylamino)pyrimidin-4-ylamino)-N,2,6,6-tetramethylbicyclo[3.1.1]heptane-3-carboxamide]: the IC50 was more than 20000 nM.
`CNC(=O)[C@H]1C[C@H]2C[C@H](C2(C)C)[C@@]1(C)Nc1nc(Nc2ccc3c(c2)OCCN3CCN2CCOCC2)ncc1Cl` [Compound 58, (1R,2R,3S,5R)-2-(5-chloro-2-((3,4-dihydro-4-(2-(morpholin-4-yl)ethyl)-2H-benzo[b][1,4]oxazin-7-yl)amino)pyrimidin-4-ylamino)-N,2,6,6-tetramethylbicyclo[3.1.1]heptane-3-carboxamide] yielded an IC50 of less than 1000 nM.
Still for that read-out and setting: the value for `CN(C)CCN1CCOc2cc(Nc3ncc(Cl)c(N[C@@]4(C)[C@@H](C(=O)NCCO)C[C@H]5C[C@@H]4C5(C)C)n3)ccc21` [Compound 60, (1R,2R,3S,5R)-2-(5-chloro-2-((3,4-dihydro-4-(2-(dimethylamino)ethyl)-2H-benzo[b][1,4]oxazin-7-yl)amino)pyrimidin-4-ylamino)-N-(2-hydroxyethyl)-2,6,6-trimethylbicyclo[3.1.1]heptane-3-carboxamide] was less than 1000 nM; that for `CCN(CC)CCN1CCOc2cc(Nc3ncc(Cl)c(N[C@@]4(C)[C@@H](C(=O)NC)C[C@H]5C[C@@H]4C5(C)C)n3)ccc21` [Compound 45, (1R,2R,3S,5R)-2-(5-chloro-2-((3,4-dihydro-4-(2-(diethylamino)ethyl)-2H-benzo[b][1,4]oxazin-7-yl)amino)pyrimidin-4-ylamino)-N,2,6,6-tetramethylbicyclo[3.1.1]heptane-3-carboxamide] was less than 1000 nM.
